Columns and labels:
[1] = target: T1, Estrogen receptor (Rattus norvegicus) (UniProt P06211+Q62986); assay: Estrogenic activity as percent of control at 5 ug subcutaneous dose; assay type: functional
[2] = target: T1, Estrogen receptor (Rattus norvegicus); assay: Estrogenic activity as percent of control at 50 ug subcutaneous dose; assay type: functional
[3] = target: T1, Estrogen receptor (Rattus norvegicus); assay: Estrogenic activity as percent of control at 100 ug subcutaneous dose; assay type: functional
[4] = target: T1, Estrogen receptor (Rattus norvegicus); assay: Anti-uterotrophic activity in immature rats at 100 ug; assay type: functional
[5] = target: T1, Estrogen receptor (Rattus norvegicus); assay: Anti-uterotrophic activity in immature rats at 50 ug; assay type: functional
[6] = target: T1, Estrogen receptor (Rattus norvegicus); assay: Anti-uterotrophic activity in immature rats at 5 ug; assay type: functional
[7] = target: T1, Estrogen receptor (Rattus norvegicus); assay: Estrogenic activity in immature rats and assayed as uterine weight gain at 0.05 ug subcutaneous dose; assay type: functional
[8] = target: T1, Estrogen receptor (Rattus norvegicus); assay: Estrogenic activity in immature rats and assayed as uterine weight gain at 100 ug subcutaneous dose; assay type: functional
[9] = target: T1, Estrogen receptor (Rattus norvegicus); assay: Estrogenic activity in immature rats and assayed as uterine weight gain at 5 ug subcutaneous dose; assay type: functional
[10] = target: T1, Estrogen receptor (Rattus norvegicus); assay: Estrogenic activity in immature rats and assayed as uterine weight gain at 50 ug subcutaneous dose; assay type: functional
[11] = target: T1, Estrogen receptor (Rattus norvegicus); assay: Antiuterotrophic activity in immature rats at 100 ug; assay type: functional
[12] = target: T1, Estrogen receptor (Rattus norvegicus); assay: Antiuterotrophic activity in immature rats at 50 ug; assay type: functional
[13] = target: T1, Estrogen receptor (Rattus norvegicus); assay: Antiuterotrophic activity in immature rats at 5 ug; assay type: functional
[14] = target: T1, Estrogen receptor (Rattus norvegicus)
Rattus norvegicus = species on record: Rattus norvegicus; assay: Antiimplantation activity in sperm-positive female albino rats mated to coeval males of proven fertility; assay type: functional
[15] = target: T1, Estrogen receptor (Rattus norvegicus); assay: Estrogenic activity as percent of control at 500 ug subcutaneous dose; assay type: functional
[16] = target: T1, Estrogen receptor (Rattus norvegicus); assay: Estrogenic activity in immature rats and assayed as uterine weight gain at 500 ug subcutaneous dose; assay type: functional

Structure (SMILES)	Control [1] [%]	Control [2] [%]	Control [3] [%]	Uterine wet weight [4]	inhibition [4] [%]	Uterine wet weight [5]	Uterine wet weight [6]	inhibition [6] [%]	Uterine wet weight [7]	Uterine wet weight [8]	Uterine wet weight [9]	Uterine wet weight [10]	Stimulation [11] [%]	Stimulation [12] [%]	Stimulation [13] [%]	Uterine wet weight [14]	MED (Rattus norvegicus) [mg/kg]	further results
COc1ccc2c(c1)OC(C)(C)C(c1ccccc1)C2c1ccc(OCCN2CCCC2)cc1 (racemic)	174	281	288	56	16.7	60.3	52.5	23.8	16.6	49	29.5	47.7	87	94	82	16.3		inhibition [5]: 8.1%
COc1ccc2c(c1)CCC(c1ccccc1)=C2c1ccc(OCCN2CCCC2)cc1 [NAFOXIDINE]																		minimal effective dose (Rattus norvegicus; Rattus norvegicus, read-out: MED): 0.1 mg/kg
COc1ccc2c(c1)OC(C)(C)C(c1ccccc1)C2c1ccc(OCCN2CCCC2)cc1 (stereo in doubt; form 1)	187	238	238	42.3	28.4	55.7	52.3	1.9	16.2	40.4	31.8	40.5	80	105	99	16.8		Control [15]: 267%; Uterine wet weight [16]: 45.4
COc1ccc2c(c1)OC(C)(C)C(c1ccccc1)C2c1ccc(OCCN2CCCC2)cc1 (stereo in doubt; form 1) [ORMELOXIFENE]																	5	
COc1ccc2c(c1)OC(C)(C)C(c1ccccc1)C2c1ccc(OCCN2CCCC2)cc1 (stereo in doubt; form 2)	222	286	303	46.4	40.3	52.6	52.7	28.7	15.8	51.4	37.8	48.6	68	77	77	25.8		inhibition [5]: 28.7%
COc1ccc2c(c1)OC(C)(C)C(c1ccccc1)C2c1ccc(OCCN2CCCC2)cc1 (stereo in doubt; form 2) [ORMELOXIFENE]																	0.15	
COc1ccc2c(c1)OC(C)(C)C(c1ccccc1)C2c1ccc(OCCN2CCCC2)cc1 (racemic) [ORMELOXIFENE]																	0.25	

Source: ChEMBL document CHEMBL1123448, “Studies in antifertility agents. 50. Stereoselective binding of d- and l-centchromans to estrogen receptors and their antifertility activity” (1986)
